Source: patent US20030049666A1, “Tissue culture assay for measuring drug induced translational recoding at premature stop codons and frameshift mutations” (University of Utah, priority 2001, published 2003)

Legend:
[1] = test system: stop codons UGA N, UAG N, and UAA N; assay: dual luciferase (p2luc) stop codon readthrough assay in HEK293 cells; type: cell-based, human; details: for readthrough of UAA A stop codon: UAA A construct, tissue culture (HEK293); for concentration at which maximal levels of stop codon readthrough were observed: aminoglycoside in growth media for 24 hours
Text: The p2luc dual luciferase reporter plasmid system, as described in U.S. Pat. No. 6,143,502, was used to measure the effect of aminoglycosides on stop codon readthrough in tissue culture cells. In this system, the renilla (sea pansy) luciferase and firefly luciferase reporter coding sequences are located on either side of a stop codon (FIG. 1). Stop codon and control constructs (containing a sense codon in place of the stop codon) are transfected in parallel in tissue culture cells. Expression of the upstream renilla luciferase gene provides a way to normalize for differences in transfection efficiencies, translation initiation, and mRNA levels between transfected cultures. […] M. R. Culbertson, RNA surveillance. Unforeseen consequences for gene expression, inherited generic disorders and cancer, 15 Trends Genet. 74-80 (1999). The ability of the dual reporter system to control for differences in mRNA levels between normal and nonsense-containing sequences provides a distinct advantage compared with single reporter or direct protein analysis. After normalization, the differences in downstream firefly luciferase activities between cultures transfected with the stop codon and control sense codon constructs reflect the frequency of stop codon readthrough.
(§1) The stop codons of SEQ ID NO: 1 through SEQ ID NO: 12 and SEQ ID NO: 25 were cloned between the two luciferase genes of p2luc, and control reporter plasmids (SEQ ID NO: 13-24) were produced by changing the first nucleotide of the stop codon to a C. More particularly, complimentary oligonucleotides corresponding to the sequences SEQ ID NO: 1 through SEQ ID NO: 25 were synthesized on an Applied Biosystems model 380C synthesizer (Foster City, Calif.) such that when annealed, they would have SalI- and BamHI-compatible ends. The oligonucleotides were ligated in SalI- and BamHI-digested p2luc vector according to methods well known in the art and transformed to Escherichia coli strain SU1675. DNA sequences were verified by autothermocycler sequencing, and plasmids were purified using the Qiagen Midiprep Kit (Valencia, Calif.) according to the manufacturer's specifications.
The oligonucleotides corresponding to SEQ ID NO: 1 through SEQ ID NO: 12 were identical except for nucleotides 13-16, which contained in-frame stop codons followed by a C, T, A, or G nucleotide. The oligonucleotides corresponding to SEQ ID NO: 13 through SEQ ID NO: 24 were the respective controls, which were identical to the oligonucleotides corresponding to SEQ ID NO: 1 through SEQ ID NO: 12 except the first nucleotide of the stop codon was replaced with a C nucleotide, thus changing the stop codon to a sense codon. The oligonucleotide corresponding to SEQ ID NO: 25 comprises the sequence surrounding the mdx mouse dystrophin mutation.
Translational readthrough of the stop codons of oligonucleotides corresponding to SEQ ID NO: 1 through SEQ ID NO: 12 was determined in a human embryonic kidney cell line (HEK293, e.g., ATCC CRL-1573) grown in the presence of varying amounts of G-418, gentamicin, and paromomycin, which have been particularly effective in inducing stop codon readthrough in yeast. A. Singh et al., Phenotypic suppression and misreading Saccharomyces cerevisiae, 277 Nature 146-148 (1979); E. Palmer et al., Phenotypic suppression of nonsense mutants in yeast by aminoglycoside antibiotics, 277 Nature 148-150 (1979). HEK293 cells were maintained as monolayer cultures growing in Dulbecco's Modified Eagle Medium with 1,000 mg/L of D-glucose, L-glutamine, pyridoxine hydrochloride, and 110 mg/L of sodium pyruvate supplemented with 10% fetal bovine serum and 50 units/ml penicillin/50 µg/ml streptomycin. All cells were incubated at 37° C. in an atmosphere of 5% CO2. All media, penicillin, and streptomycin were obtained from LifeTechnologies (Rockville, Md.); aminoglycosides were purchased from Sigma (St Louis, Mo.); and all sera were obtained from HyClone (Logan, Utah). […]

[2] = test system: cystic fibrosis transmembrane conductance regulator (CFTR) protein; details: bronchial cell line carrying a nonsense mutation in the CFTR gene; cited from earlier work
[3] = test system: dystrophin; details: cited from earlier work
[4] = test system: mdx premature stop codon / UGA C control; assay: dual luciferase stop codon readthrough assay in mouse myoblast C2C12 cell line; type: cell-based
Text: as §1, with “DNA sequences were verified by autothermocycler sequencing, and plasmids were purified using the Qiagen Midiprep Kit (Valencia, Calif.) according to the manufacturer's specifications.” left out
Cells were lysed using passive lysis buffer (Promega, Madison, Wis., and both renilla and firefly luciferase activities were determined using the dual luciferase reporter assay (Promega) on a Dynatech MLX Microtiter Plate Luminometer (Burlington, Mass.). For all reactions, light emission was measured for 2 to 12 seconds after 100μl of luminescence substrate was injected. Stop codon readthrough was calculated by comparing the ratio of firefly to renilla luciferase activity in cultures transfected with p2luc stop codon constructs and compared with ratios obtained from cultures transfected with p2luc control constructs. […]

[5] = test system: overall translation; assay: inhibition of translation monitored by reduction in renilla luciferase activity in control transfections; type: cell-based, human; details: highest concentration tested, HEK293 control transfections
Procedure: Transfections were performed using lipofectamine reagent (LifeTechnologies). HEK293 cells (0.15×10^5)were plated in 0.34-cm^2 wells and grown for 24 to 48 hours according to methods well known in the art. All cells were transfected with 0.3 μl of lipofectin and 0.075 μg of plasmid DNA for 15 hours, in serum-free media. Fresh media with serum and varying levels of aminoglycosides (Sigma) were then added, and incubation continued for 24 hours.
Cells were lysed using passive lysis buffer (Promega, Madison, Wis., and both renilla and firefly luciferase activities were determined using the dual luciferase reporter assay (Promega) on a Dynatech MLX Microtiter Plate Luminometer (Burlington, Mass.). For all reactions, light emission was measured for 2 to 12 seconds after 100μl of luminescence substrate was injected. Stop codon readthrough was calculated by comparing the ratio of firefly to renilla luciferase activity in cultures transfected with p2luc stop codon constructs and compared with ratios obtained from cultures transfected with p2luc control constructs.
A significant difference in stop codon readthrough induced by the aminoglycosides was observed between UGA, UAG, and UAA. […] The nucleotide in the fourth position immediately after the stop codon also contributed to the frequency of stop codon readthrough. This effect is particularly obvious for UGA N, where N=C>U>A≧G in order of most to least stop codon readthrough. […] Inhibition of translation was monitored by examining the reduction in renilla luciferase activity in control transfections.

reduction in overall translation [5] | Molecule | readthrough of UAA A stop codon [1] | expression of CFTR protein [2] | effect on premature stop codon in the dystrophin gene of the mdx mouse [3] | full-length dystrophin protein expressed on aminoglycoside treatment ([3]; mdx mouse) | gentamicin-induced readthrough of mdx sequence in C2C12 cells compared with UAA A construct in HEK293 cells [4] | stop codon readthrough on a mass basis, comparison of the three aminoglycosides ([1]; HEK293 cells) | concentration at which maximal levels of stop codon readthrough were observed ([1]; HEK293 cells)
~20% | gentamicin | approximately 1% | restore the expression | can partially reverse the effects of a premature stop codon | 10 to 20% | No increase | – | –
little effect on translation | NC[C@@H]1O[C@H](O[C@H]2[C@@H](O)[C@H](O[C@@H]3[C@@H](O)[C@H](N)C[C@H](N)[C@H]3O[C@H]3O[C@H](CO)[C@@H](O)[C@H](O)[C@H]3N)O[C@@H]2CO)[C@H](N)[C@@H](O)[C@@H]1O [paromomycin] | approximately 1% | – | – | – | – | – | 2 mg/mL

Molecule | reduction in overall translation [5] | readthrough of UAA A stop codon [1] | expression of CFTR protein [2] | effect on premature stop codon in the dystrophin gene of the mdx mouse [3] | full-length dystrophin protein expressed on aminoglycoside treatment ([3]; mdx mouse) | gentamicin-induced readthrough of mdx sequence in C2C12 cells compared with UAA A construct in HEK293 cells [4] | stop codon readthrough on a mass basis, comparison of the three aminoglycosides ([1]; HEK293 cells) | concentration at which maximal levels of stop codon readthrough were observed ([1]; HEK293 cells)
CN[C@@H]1[C@@H](O)[C@@H](O[C@@H]2[C@@H](O)[C@H](O[C@H]3O[C@H]([C@@H](C)O)[C@@H](O)[C@H](O)[C@H]3N)[C@@H](N)C[C@H]2N)OC[C@]1(C)O [G-418] | ~50% | approximately 1% | restore the expression | – | – | – | induced the most readthrough on a mass basis | 0.4 mg/mL
